# Where a SMILES comes first, the peptide text is derived from it. [ ]: non-standard residue; d: D form. Tic = O=C(O)[C@@H]1Cc2ccccc2CN1; Abu = CC[C@H](N)C(=O)O
# What was measured:
# [1] = test system: primordial follicles of ovarian cortex; test: Culture of ewe ovarian cortex fragments for 10 days: start of growth of primordial follicles; type: cell-based; conditions: for start of growth of the primordial follicles: ewe ovarian cortex, 10 days of culture, versus control fragments
# Protocol: Ovaries of adult ewes are collected immediately after slaughter. The ovaries are placed in an organ transport medium without serum (X-vivo, Bio Whittaker, Walkersville, Md., USA) at 10° C. and transported to the laboratory. Approximately 1 h after removal, the cortex is isolated from the medulla then fractionated into slices of 2 mm thickness (1 cm^2, average weight of 212 mg) after rinsing in new X-vivo. The cortex fragments are cultured in an oven under 5% oxygen for 10 days in well plates in the presence of DMEM. The medium is changed every 2 days.
# The procedure used is the same as for Example 1, except that the somatostatin is replaced with one of its agonist analogues, namely the synthetic peptide of formula c[Tic-Tyr-DTrp-Lys-Abu-Phe] (hereafter AG1 peptide).
# The procedure used is the same as for Example 1, except that the somatostatin is replaced by one of its antagonist analogues, namely the synthetic peptide of formula Cpa-c(DCys-3-Pal-DTrp-NMeLys-Thr-Cys)-2-Nal-NH2 (hereafter ANT1 peptide).
# (§1) FIG. 1 represents the proportions of dormant follicles during a period of 10 days of culture of an ovarian cortex of a ewe in the presence or absence (control) of somatostatin (SST14). These proportions are measured for each sample tested on the day of the start of the experiment (D0), on the 4th day (D4), on the 7th day (D7) and on the 10th day (D10).
# as §1, with “FIG. 2” for “FIG. 1”, “of primary” for “of dormant”
# FIG. 3 represents the proportions of primordial, intermediate, primary and secondary follicles during a period of 10 days of culture of an ovarian cortex of a ewe in the absence of agonist or somatostatin antagonist analogue. These proportions are measured for each sample tested on the day of the start of the experiment (D0), on the 4th day (D4), on the 7th day (D7) and on the 10th day (D10).
# (§2) FIG. 4 represents the proportions of primordial, intermediate, primary and secondary follicles during a period of 10 days of culture of an ovarian cortex of a ewe in the presence or absence of a somatostatin agonist analogue, the synthetic peptide of formula c[Tic-Tyr-DTrp-Lys-Abu-Phe] (AG1 peptide). These proportions are measured for each sample tested on the day of the start of the experiment (D0), on the 4th day (D4), on the 7th day (D7) and on the 10th day (D10).
# as §2, with “FIG. 5” for “FIG. 4”, “somatostatin antagonist” for “somatostatin agonist”, “formula Cpa-c(DCys-3-Pal-DTrp-NMeLys-Thr-Cys)-2-Nal-NH2 (ANT1” for “formula c[Tic-Tyr-DTrp-Lys-Abu-Phe] (AG1”
# ovarian follicles = test: Envisaged typical clinical situations of use in patients; type: in vivo, human; conditions: patient with polycystic ovary syndrome, 120 mg/month, 4th month of treatment, envisaged situation
# Text: The following typical situations for a use according to the invention could however be envisaged: • A patient of approximately 20 to 25 years of age (for example) has a partial Turner syndrome through X chromosome microdeletion. Their ovarian function is apparently normal with regular ovulatory cycles. Their FSH serum level is slightly higher during the luteal-follicular transition period (for example FSH=approximately 9.2 IU/litre). […] Considering the high risk that they will have early menopause, the patient is treated with lanreotide acetate at a dose of 120 mg/months (Somatuline® Autogel® 120 mg, Beaufour Ipsen Pharma, France). The treatment is discontinued after several years when the patient wishes to conceive. • A patient of approximately 35 to 40 years of age has had primary sterility for several years. Assessment of the couple produced a diagnosis of sterility of tubal origin, very probably resulting from a history of peritonitis. The menstrual cycles are ovulatory and the FSH serum level is slightly higher during the luteal-follicular transition period (for example FSH=approximately 11.4 IU/L). […] A diagnosis of reduction of the ovarian reserve is made. […] During this treatment, the number of antral follicles present in each ovary is assessed by ultrasound at the start of each menstrual cycle. […]
# [2] = AG1 peptide at 10^-9 M, D0-D10, FIG. 4
compound,measurement,setting,value
"CC[C@@H]1NC(=O)[C@H](CCCCN)NC(=O)[C@@H](Cc2c[nH]c3ccccc23)NC(=O)[C@H](Cc2ccc(O)cc2)NC(=O)[C@@H]2Cc3ccccc3CN2C(=O)[C@H](Cc2ccccc2)NC1=O [AG1 peptide, c[Tic-Tyr-DTrp-Lys-Abu-Phe]] (cyclo([Tic]Y[dW]K[Abu]F))",number of primary follicles,[1]; [2],absence of increase in the number of primary follicles
same,number of primordial follicles over time,[1]; [2],maintenance over time of the number of primordial follicles
same,start of growth of the primordial follicles,[1]; AG1 peptide at 10^-9 M,very significantly inhibits the start of growth of the primordial follicles
C[C@H](N)C(=O)NCC(=O)N[C@H]1CSSC[C@@H](C(=O)O)NC(=O)[C@H](CO)NC(=O)[C@H]([C@@H](C)O)NC(=O)[C@H](Cc2ccccc2)NC(=O)[C@H]([C@@H](C)O)NC(=O)[C@H](CCCCN)NC(=O)[C@H](Cc2c[nH]c3ccccc23)NC(=O)[C@H](Cc2ccccc2)NC(=O)[C@H](Cc2ccccc2)NC(=O)[C@H](CC(N)=O)NC(=O)[C@H](CCCCN)NC1=O [SST14],number of primordial follicles over time,"[1]; SST14 at 10^-9 M to 10^-6 M, D0-D10, FIG. 1",maintenance over time of the number of primordial follicles
same,number of primary follicles,"[1]; SST14 at 10^-9 M to 10^-6 M, D0-D10, FIG. 2",absence of increase in the number of primary follicles
same,start of growth of the primordial follicles,[1]; SST14 at 10^-9 M to 10^-6 M,very significantly inhibits the start of growth of the primordial follicles
CC(C)[C@@H]1NC(=O)[C@H](CCCCN)NC(=O)[C@@H](Cc2c[nH]c3ccccc23)NC(=O)[C@H](Cc2ccc(O)cc2)NC(=O)[C@@H](NC(=O)[C@H](N)Cc2ccc3ccccc3c2)CSSC[C@@H](C(=O)N[C@H](C(N)=O)[C@@H](C)O)NC1=O [lanreotide acetate],ovarian volume and number of antral follicles (ultrasound),ovarian follicles,reduction in ovarian volume and in the number of antral follicles

# Source: patent US7648961B2, “Use of somatostatin or one of its analogues for preparing a medicament intended to regulate the ovarian follicular reserve in non-menopausal women” (Preglem S.A., priority 2003, dated 2010)
